Peptide text beside a SMILES is read from it. * marks the point of attachment. Cbz = O=C(OCc1ccccc1)*; CH2F = FC*
Key:
Assay type in all cases: cell-based
HeLa cells [1] = assay: Apoptosis / cell death of transiently transfected HeLa cells by IF time-lapse video microscopy with propidium iodide
Text: FIGS. 2A-2D illustrate photographically, graphically and in a chart that transient transfection of DN Crk induces cell death in HeLa cells. Specifically, HeLa cells were transiently transfected with wild type CrkI (pCrkI), SH2 DN (pCrkI/R38K), or SH3 DN (pCrkI/W170K) fused to C FP in the absence (FIG. 2A) or presence (FIG. 2B) of carbobenzoxy-valyl-alanyl-aspartyl-[O-methyl], or ZVAD. The tabulated results shown in FIG. 2D, were collected from multiple videos. The time to death was defined as the time of expression of transfected gene (appearance of green) to the time of PI uptake (appearance of yellow) and expressed as the mean+SEM.
We postulated that if modification of Crk by ExoT is responsible for inducing anoikis, DN mutations in CrkI domains might also result in apoptosis, phenocopying the ExoT's cytotoxicity. To investigate this hypothesis, HeLa cells were transfected with mammalian expression vectors harboring CrkI or its SH2 (CrkI/R38K) or SH3 (CrkI/W170K) DN mutant forms, fused at their C-termini to GFP, and assessed apoptosis by IF video microscopy in the presence or absence of Z-VAD, a pancaspase inhibitor that blocks known apoptotic cell deaths. […]
(§1) ExoT inhibits ASCS formation. […] We assessed the proliferation capacity index associated with ExoT- or CrkI apoptotic cells. […]

HeLa cells [2] = assay: ACSC formation, release and signalling in transfected apoptotic HeLa cells (IF time-lapse microscopy)
Text: Specifically, HeLa cells were transiently transfected with CrkI-GFP expression vector. CrkI forms complexes (indicated […] which go through a cytoplasmic bridge from a dying cell (indicated by red arrow) and induce healthy neighbor recipient cells (indicated by yellow arrow) to divide. Six frames (FIGS. 3A-3F) from IF timelapse microscopy are shown.
FIG. 4 graphically illustrates that ACSC formation is an active process. Specifically, the incidence of apoptotic compensatory signaling complex (ACSC) release from CrkI, CrkI-R38K (SH2 DN), and CrkI-VV170K (SH3 DN) transfected HeLa cells is shown in bar chart form.
FIG. 5 graphically illustrates that ACSC formation is regulated differently by SH2 and SH3 domains. Specifically, the number of ACSC complexes per apoptotic CrkI, CrkI (SH2 DN), and CrkI (SH3 DN) transfected HeLa cells was determined and the results are presented in bar chart form.
FIGS. 6A-6C photographically illustrate that the ADPRT domain of ExoT appears to inhibit ACSC. […]
as §1

[3] = test system: 4T1 metastatic breast tumor cells; assay: Cytotoxicity in 4T1 metastatic breast tumor cells by PI staining, immunofluorescent timelapse microscopy
Method: Specifically, in FIGS. 9A-9C, 4T1 cells were infected with PA103 strains expressing ExoT or defective in ExoT expression (Mock), or treated with 50 μM cisplatinum (Cisplatin).
Specifically, 4T1 cells were infected with PA103 strains expressing ExoT (ExoT) […] or defective in ExoT expression (Mock) (FIG. 9A), or treated with 50 μM cisplatinum (Cisplatin) (FIG. 9C). Cytotoxicity was determined by propidium iodide (PI) staining using immunofluorescent timelapse microscopy (FIG. 9D).

B16 melanoma cells = assay: Cytotoxicity in B16 melanoma cells by PI staining, immunofluorescent time lapse microscopy; settings: infection with ExoT-expressing P. aeruginosa, MOI 10, or transfection with ExoT-EGFP
Method: Specifically, FIGS. 8A-8C are photographs of B16 cells infected with Pseudomonas aeruginosa strains expressing ExoT or defective in ExoT (Mock) at a multiplicity of infection (MOI) 10 or treated with 50 μM cisplatinum. Cytotoxicity was determined by measuring propidium iodide (PI) staining using immunofluorescent time lapse microscopy. FIG. 8D graphically illustrates the level of cell death, for the samples of FIGS. 8A-8C as indicated by PI staining intensity in pixels as measured from each frame using NIH Image J software.
B16 cells were infected with Pseudomonas aeruginosa strains expressing ExoT or defective in ExoT (Mock), at multiplicity of infection (MOI) 10 or treated with 50 μM cisplatinum (FIGS. 8A-8C). Cytotoxicity was determined by measuring propidium iodide (PI) staining (red) using immunofluorescent time lapse microscopy. Still images are shown. The level of cell death, indicated by PI staining intensity (pixels), was measured from each frame using NIH Image J software (FIG. 8D). B16 melanoma cells were transiently transfected with pIRES expression vectors, harboring ExoT-EGFP or EGFP alone. Cytotoxicity was determined by PI staining using IF microscopy.

HeLa-S3 cells = assay: Cytotoxicity of ExoT-expressing PA103 infection in anoikis-resistant HeLa-S3 cells (PI uptake, video microscopy); settings: ExoT-expressing PA103 strain, MOI about 10
Method: Anoikis-sensitive (HeLa) or Anoikis-resistant (HeLa S3) cells were infected with the ExoT-expressing PA strain (PA103 AU) at an MOI of ca. 10. Host cell death was assessed by uptake of propidium iodide (PI) by simultaneous time lapse phase and fluorescent video microscopy. Video images were captured every 15 min. Representative frames are shown.
To test this hypothesis, 1×10^5 HeLa and HeLa-S3 cells were infected with ExoT-expressing PA103 strain at MOI of about 10 and assessed apoptosis by immunofluorescent (IF) video microscopy in the presence of propidium iodide (PI) as described.

HeLa cells [4] = assay: Proliferation capacity index of transfected apoptotic cells (mitotic cells in neighbouring cells); settings: compared to CrkI-transfected apoptotic cells; within six hours after cell rounding
Text: FIG. 7 graphically illustrates that ExoT blocks ACSC-induced proliferation in surrounding cells. Specifically, the proliferation capacity index of the CrkI-EGFP or ExoTEGFP transfected apoptotic cells was defined based on the capacity to induce proliferation in the neighboring cells within six hours after cell rounding.
ExoT inhibits ASCS formation. […] If ExoT inhibited ACSC assembly and signaling, it was reasoned that there should be a reduction in the number of mitotic cells surrounding the ExoT-induced apoptotic cells. We assessed the proliferation capacity index associated with ExoT- or CrkI apoptotic cells. […] Without being bound to any particular theory, it is believed that CrkI adaptor protein functions as a scaffold for the ACSC assembly and that PA utilizes ExoT to block this process while inducing apoptosis in its target host.

## COC(=O)C[C@H](NC(=O)[C@H](C)NC(=O)[C@@H](NC(=O)OCc1ccccc1)C(C)C)C(=O)CF [Z-VAD, carbobenzoxy-valyl-alanyl-aspartyl-[O-methyl], reference compound] (Cbz-Val-Ala-Asp(OMe)-CH2F)
HeLa cells [1]; treatment with Z-VAD
  apoptotic PCD: blocked
HeLa cells [2]; treatment with Z-VAD, all conditions
  ACSC formation: completely blocked

## N.N.[Cl][Pt][Cl] [cisplatin, cisplatinum, reference compound]
[3]; 50 μM cisplatinum
  cell death in 4T1 cells: kill 4T1 cells

## ExoT
HeLa cells [1]; transient transfection with expression vector, IF video microscopy, PI
  apoptosis (cell death) in transfected HeLa cells: 100%
B16 melanoma cells
  cytotoxicity in B16 melanoma cells: potent cytotoxicity
HeLa cells [2]; transfection with ExoT fusion vectors
  ACSC-like globular complexes in transfected apoptotic HeLa cells: never observed
HeLa-S3 cells
  ExoT-induced cytotoxicity in HeLa-S3 cells: resistant
[3]; infection with PA103 strain expressing ExoT
  cell death in 4T1 cells: potent inducer of cell death
HeLa cells [4]
  percentage of mitotic cells surrounding transfected apoptotic HeLa cells: substantial reduction
